In ChEMBL document CHEMBL1201862, “PubChem BioAssay data set” (2004):
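Interpolation was linear, between the two tested concentrations surrounding the appropriate level; five concentrations were tested over 48 hours in 96-well plates. Here, GI50 denotes the concentration required for 50% inhibition of growth.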 Activity calls are given as the source filed them. Rule as the data show it: active = GI50 up to about 1.1 µM and inactive = higher.

Key:
Test in all cases: inhibition of tumour cell growth, NCI panel, 48 h
[1] = tested on: SN12C
[2] = tested on: OVCAR-8
[3] = tested on: HL-60
[4] = tested on: HOP-18
[5] = tested on: DMS-114
[6] = tested on: CAKI-1
[7] = tested on: NCI-H23
[8] = tested on: LOX IMVI
[9] = tested on: SNB-19
[10] = tested on: SNB-75
[11] = tested on: COLO 205
[12] = tested on: SW-620
[13] = tested on: RPMI-8226
[14] = tested on: M19-MEL
[15] = tested on: KM12
[16] = tested on: HOP-92
[17] = tested on: DLD-1
[18] = tested on: SR

Measured: GI50

C[C@]12C/C(=C/O)C(=O)C(O)=C1CC[C@@H]1C2CC[C@@]2(C)C1CC[C@@H]2O (some centres undefined)
inactive: [1] 25.9 µM | [2] 27.1 µM | [3] 17.3 µM | [4] 33.7 µM | [5] 18.2 µM | [6] 26.1 µM | [7] 17.4 µM | [8] 12 µM | [9] 18.3 µM | [10] 20.4 µM | [11] 21.2 µM | [12] 37 µM | [13] 17.6 µM | [14] 21.2 µM | [15] 25.6 µM | [16] 23.1 µM

COc1ccc2c(c1O)C(=O)C(CCC(=O)O)CC2 (centres undefined)
inactive: [1] > 100 µM | [2] > 100 µM | [3] > 100 µM | [4] > 100 µM | [5] > 100 µM | [6] > 100 µM | [7] > 100 µM | [8] > 100 µM | [9] > 100 µM | [10] > 100 µM | [11] > 100 µM | [12] > 100 µM | [13] > 100 µM | [14] > 100 µM | [17] > 100 µM | [16] > 100 µM

COc1ccc(OC)c(CC(C)N)c1 (centres undefined)
inactive: [1] > 100 µM | [2] > 100 µM | [4] > 100 µM | [5] > 100 µM | [6] > 100 µM | [7] > 100 µM | [8] > 100 µM | [9] > 100 µM | [10] > 100 µM | [11] > 100 µM | [12] > 100 µM | [13] > 100 µM | [14] > 100 µM | [17] > 100 µM | [15] > 100 µM

CC(C)CCCC(C)[C@H]1CCC2[C@@H]3CCC4Nc5nocc5C[C@]4(C)C3CC[C@@]21C (some centres undefined)
inactive: [1] 18.1 µM | [2] 12.6 µM | [3] 9.02 µM | [4] 13.6 µM | [6] 14.4 µM | [7] 14.6 µM | [8] 2.23 µM | [9] 21.2 µM | [10] 15.6 µM | [11] 6.14 µM | [12] 15.1 µM | [13] 20.3 µM | [14] 16.9 µM | [17] 19.7 µM | [15] 19.9 µM

CC(=O)O[C@H]1CC[C@@]2(C)C(=CC[C@H]3C4=CC=C(C(C)=O)[C@@]4(C)CCC32)C1 (some centres undefined)
inactive: [1] 34.7 µM | [2] 21.8 µM | [3] 18 µM | [4] > 100 µM | [6] 34.8 µM | [18] 19.6 µM | [8] 15.5 µM | [9] 63.8 µM | [10] 31.1 µM | [11] 13.4 µM | [12] 20.9 µM | [13] 15.3 µM | [14] 36.3 µM | [17] 37.8 µM | [15] 19.9 µM | [16] 27.6 µM

NC(=O)CCCC(NCc1c2ccccc2nc2ccccc12)C(=O)O (centres undefined)
inactive: [1] 41.5 µM | [2] 42.7 µM | [3] 20.5 µM | [5] 37.2 µM | [6] 27.5 µM | [7] 53.1 µM | [18] 25.9 µM | [8] 30.4 µM | [10] 58.2 µM | [11] 56.4 µM | [12] 50.9 µM | [13] 22.8 µM | [14] 45.2 µM | [17] 35.4 µM | [15] 29.2 µM | [16] 27.5 µM

Nc1c(-c2nc3ccccc3[nH]2)sc(=S)n1-c1ccc(Cl)cc1
inactive: [1] 21.4 µM | [2] 23.8 µM | [3] > 100 µM | [4] 20.8 µM | [5] 18.6 µM | [6] 33 µM | [7] 36.6 µM | [8] 26.1 µM | [9] 25.7 µM | [10] 27.7 µM | [11] 35.3 µM | [12] 39.5 µM | [13] 28.1 µM | [14] 32.4 µM | [17] 48.2 µM | [15] 28.6 µM

C[C@@H](N[C@H]1CCC[C@@H]1O)c1ccccc1.C[C@@H](N[C@H]1CCC[C@H]1O)c1ccccc1
inactive: [1] > 100 µM | [2] > 100 µM | [3] 43.6 µM | [4] 48.8 µM | [5] > 100 µM | [7] > 100 µM | [8] 34.4 µM | [9] 71.8 µM | [10] > 100 µM | [11] 75.7 µM | [12] 61.4 µM | [13] 53.7 µM | [14] > 100 µM | [15] 41.4 µM | [16] 30.7 µM

O=C1c2ccccc2C(=O)c2c1ccc1c2N=C(c2ccc(Br)cc2)CC(c2cccc3ccccc23)N1 (centres undefined)
inactive: [1] > 100 µM | [2] > 100 µM | [3] > 100 µM | [4] > 100 µM | [5] > 100 µM | [6] > 100 µM | [7] > 100 µM | [18] 57.7 µM | [8] > 100 µM | [9] > 100 µM | [10] 94.6 µM | [11] > 100 µM | [12] > 100 µM | [13] 83.6 µM | [17] > 100 µM | [15] > 100 µM

COC(=O)C1=C(O)c2cc(OC)c(OC)c(OC)c2[C@H](c2cc(OC)c(OC)c(OC)c2)C1C(=O)OC (some centres undefined)
inactive: [1] 50.8 µM | [2] 36.4 µM | [3] 16.8 µM | [5] 30.6 µM | [6] > 100 µM | [7] 31.2 µM | [8] 41.1 µM | [9] 38.3 µM | [10] 38.7 µM | [11] 15.8 µM | [12] 29 µM | [13] 28.2 µM | [17] 45.1 µM | [15] 21.9 µM | [16] 9.89 µM

Cc1cc(N(CCC#N)CCC#N)ccc1/C=C/C(=O)Nc1ccccc1Cl
inactive: [1] > 100 µM | [2] > 100 µM | [3] 31.4 µM | [5] > 100 µM | [6] > 100 µM | [7] > 100 µM | [8] > 100 µM | [9] > 100 µM | [10] > 100 µM | [11] > 100 µM | [12] > 100 µM | [13] > 100 µM | [14] > 100 µM | [17] > 100 µM | [15] > 100 µM | [16] > 100 µM

Cc1cccc(=O)c([O-])c1.Cc1cccc(=O)c([O-])c1.[Bi+3].[Cl-]
inactive: [1] 11.8 µM | [2] 3.72 µM | [3] 3 µM | [5] 3.3 µM | [6] 15.5 µM | [7] 10.9 µM | [8] 9.55 µM | [9] 15.5 µM | [10] 10 µM | [12] 5.47 µM | [13] 3.42 µM | [14] 11 µM | [17] 9.95 µM | [15] 11.6 µM | [16] 6.01 µM

CCCc1ccc(NCc2cc(OC)c(OC)c(OC)c2)cc1
inactive: [1] 22.3 µM | [2] 35.3 µM | [4] 31.3 µM | [5] 15.6 µM | [7] 22 µM | [8] 15.7 µM | [9] 36.4 µM | [10] 29 µM | [13] 12.7 µM | [14] 20.5 µM | [17] 23.9 µM | [15] 23.1 µM | [16] 22.9 µM

CSCCC(NC(=O)C(Cc1ccccc1)NC(=O)CNC(=O)CNC(=O)C(N)Cc1ccc(O)cc1)C(=O)O (centres undefined)
inactive: [1] > 100 µM | [2] > 100 µM | [3] > 100 µM | [4] > 100 µM | [5] > 100 µM | [6] > 100 µM | [7] > 100 µM | [8] > 100 µM | [9] > 100 µM | [10] > 90.2 µM | [11] > 100 µM | [12] > 100 µM | [14] > 100 µM | [15] > 100 µM | [16] > 100 µM

COc1ccc2oc(-c3ccncc3)cc(=O)c2c1
inactive: [1] 38.7 µM | [3] > 100 µM | [5] > 100 µM | [6] 33.2 µM | [7] > 100 µM | [8] 57.5 µM | [9] > 100 µM | [10] > 100 µM | [11] > 100 µM | [13] > 100 µM | [17] > 100 µM | [15] 84.5 µM | [16] 37.5 µM

O=C1CC2(CCC3=C(O2)c2ccccc2NC(=O)C3)C(=O)c2ccccc2N1 (centres undefined)
inactive: [1] > 100 µM | [2] > 100 µM | [3] > 100 µM | [5] > 100 µM | [7] > 100 µM | [18] > 10 µM | [8] > 100 µM | [9] 98.6 µM | [10] 22.2 µM | [11] > 100 µM | [12] > 100 µM | [13] 87.1 µM | [14] > 100 µM | [15] > 100 µM

O=C(O)CN1CCSc2ccccc2CN(CC(=O)O)CCSc2ccccc2C1
inactive: [1] > 100 µM | [2] > 100 µM | [3] > 100 µM | [4] > 100 µM | [6] > 100 µM | [7] > 100 µM | [18] 4.61 µM | [8] > 100 µM | [9] > 100 µM | [10] > 100 µM | [11] > 100 µM | [12] > 100 µM | [13] > 100 µM | [14] > 100 µM | [17] > 100 µM | [15] > 100 µM | [16] > 100 µM
